Reference: patent US11179412B2, “Methods of treating conditions involving elevated inflammatory response” (University of Pittsburgh—Of the Commonwealth System of …, priority 2017, dated 2021)
Entries after “also recorded” stand apart in the source; their conditions may differ.

Legend:
IFNβ mRNA in iBMDMs = experiment: IFNβ mRNA Q-PCR, iBMDMs; format: cell-based, mouse; details: STING ligands 10 μg/ml, inhibitor 10 μM, 16 hours
Procedure: (§1) Total RNA was extracted using QIAGEN RNeasy Plus Kit according to the manufacturer's instructions. First-strand cDNA was synthesized from 1 μg of RNA using the iScript cDNA Synthesis kit (#1708890, Bio-Rad). Briefly, 20 μl reactions were prepared by combining 4 μl iScript Select reaction mix, 2 μl gene-specific enhancer solution, 1 μl reverse transcriptase, 1 μl gene-specific assay pool (20×, 2 μM), and 12 μl RNA diluted in RNase-free water. Quantitative real-time PCR was carried out using synthesized cDNA, primers, and SsoFast EvaGreen Supermix (#172-5204, Bio-Rad). The expression of target genes was calculated using the ddCt method relative to the expression of a house-keeping gene, β-actin. Data shown are the relative quantity (RQ), with RQ of the control cells set to one.

[1] = test system: CLP-induced polymicrobial sepsis in C57BL/6J mice; experiment: CLP model of polymicrobial sepsis; format: in vivo, mouse
Procedure: sepsis was induced in male or female C57BL/6J mice (eight- to 10-weeks old, 22 to 26 g) using a surgical procedure as previously described (68). Briefly, anesthesia was induced with ketamine (80-100 mg/kg/i.p.) and xylazine (10-12.5 mg/kg/i.p.). A small midline abdominal incision was made and the cecum was exteriorized and ligated with 4-0 silk immediately distal to the ileocecal valve without causing intestinal obstruction. The cecum was then punctured twice with a 17-27-gauge needle. The abdomen was closed in two layers and mice were injected subcutaneously with 1 ml Ringer's solution including analgesia (0.05 mg/kg buprenorphine). […]
Biochemical measurements of tissue enzymes (CK, AMYL, BUN, and ALT) in serum were performed using the IDEXX Catalyst Dx Chemistry Analyzer according to the manufacturer's protocol.
Tissues were embedded in optimum cutting temperature cryomedium (Sakura Finetek, Zoeterwoude, the Netherlands) and cut into 4 μm sections. The deparaffinized sections were then stained using the standard H&E method. The stained slides were observed using an EVOS FL Auto Cell Imaging System (Invitrogen), five fields per section and three sections per sample.

iBMDMs = experiment: Cell viability assay (CCK-8), iBMDMs; format: cell-based, mouse; details: 3′3′-cGAMP 10 μg/ml, ALK inhibitor 10 μM, 16 hours
Procedure: (§2) Cells were seeded into 96-well plates and incubated with the indicated treatments. Subsequently, 100 μl fresh medium was added to cells containing 10 μl Cell Counting Kit-8 (CCK-8) solutions (Dojindo Laboratories) and incubated for 1 h (37° C., 5% CO2). Absorbance at 450 nm was measured using a microplate reader (Tecan).

[2] = test system: STING signaling (TBK1, IRF3, p65, ALK, EGFR, AKT phosphorylation) in RAW264.7 cells; experiment: Western blot of STING pathway protein phosphorylation, RAW264.7; format: cell-based, mouse; details: 10 μM
Procedure: (§3) For immunoblotting, cells were lysed in Cell Lysis Buffer (#9803, Cell Signaling Technology) with protease inhibitor cocktail (Promega), phosphatase inhibitor cocktail (Sigma), and 1 mM Na3VO4 (70). Cleared lysates were resolved by SDS-PAGE (#3450124, Bio-Rad) and then transferred onto PVDF membranes (#1704273, Bio-Rad). The membranes were blocked with Tris-buffered saline Tween 20 (TBST) containing 5% skim milk for 1 h at room temperature and then incubated with the indicated primary antibodies (1:1000-1:5000) overnight at 4° C. After being washed with TBST, the membranes were incubated with an HRP-linked anti-mouse IgG secondary antibody (#7076, Cell Signaling Technology) or HRP-linked anti-rabbit IgG secondary antibody (#7074, Cell Signaling Technology) for 1 h at room temperature. The membranes were washed three times in TBST and then visualized and analyzed with a ChemiDoc Touch Imaging System (#1708370, Bio-Rad). The intensities of bands were analyzed with Image Lab software.

[3] = test system: STING activation (IFNβ release) in pPMs; experiment: IFNβ release ELISA, primary peritoneal macrophages (pPMs); format: cell-based, mouse; details: 16 hours
Procedure: Mouse pPMs were isolated from C57BL/6J mice as previously described (69). In brief, eight-week-old female or male C57BL/6J mice were injected with 3.0% thioglycollate medium (2 mL/mouse) into the peritoneum. Three days after injection, mice were sacrificed and injected with 3 mL of 0.05% EDTA-PBS into the peritoneum to harvest peritoneal macrophages. Collected cells were centrifuged at 1000 rpm for 5 min at 4° C., and the cell pellet was washed with PBS and centrifuged again. The cell pellet was then suspended in Dulbecco's Modified Eagle Medium supplemented with 10% FBS and 1× Penicillin-Streptomycin and cultured in a culture dish.
(§4) Macrophages or monocytes were treated with 3′3′-cGAMP (10 μg/ml, Invitrogen) for 16 hours in the absence or presence of one compound (10 μM) from the Target-selective Inhibitory Library (#L3500, Selleck Chemicals). Commercially available enzyme-linked immunosorbent assay (ELISA) kits were used to measure the concentrations of mouse IFNβ (Thermo Fisher Scientific) or human IFNβ (Thermo Fisher Scientific) in culture medium according to the manufacturer's instructions.

RAW264.7 cells = experiment: Cell viability assay (CCK-8), RAW264.7; format: cell-based, mouse; details: 3′3′-cGAMP 10 μg/ml, ALK inhibitor 10 μM, 16 hours
Procedure: as §2

pPMs = experiment: Cell viability assay (CCK-8), pPMs; format: cell-based, mouse; details: 3′3′-cGAMP 10 μg/ml, ALK inhibitor 10 μM, 16 hours
Procedure: as §2

[4] = test system: STING activation (IFNβ release) in pPBMCs; experiment: IFNβ release ELISA, primary peripheral blood mononuclear cells (pPBMCs); format: cell-based; details: human pPBMCs; 3′3′-cGAMP 10 μg/ml, 16 hours; compound 10 μM
Procedure: as §4

[5] = test system: IFNβ mRNA in RAW264.7 cells; experiment: IFNβ mRNA Q-PCR, RAW264.7 cells; format: cell-based, mouse; details: STING ligands 10 μg/ml, inhibitor 10 μM, 16 hours
Procedure: as §1

[6] = test system: STING signaling (TBK1, IRF3, p65, ALK, EGFR, AKT phosphorylation) in THP1 cells; experiment: Western blot of STING pathway protein phosphorylation, THP1; format: cell-based, human; details: 10 μM
Procedure: as §3

[7] = test system: STING activation (IFNβ release) in J774A.1 cells; experiment: IFNβ release ELISA, J774A.1 cells; format: cell-based, mouse; details: STING ligands 10 μg/ml, inhibitor 10 μM, 16 hours
Procedure: as §4

[8] = 3′3′-cGAMP 10 μg/ml, three to 16 hours
[9] = 3′3′-cGAMP or c-di-AMP 10 μg/ml, 16 hours

Cc1cc(Nc2ncc(Cl)c(Nc3ccccc3S(=O)(=O)C(C)C)n2)c(OC(C)C)cc1C1CCNCC1 [LDK378, 5-chloro-N^2-(2-isopropoxy-5-methyl-4-(piperidin-4-yl)phenyl)-N^4-[2-(propane-2-sulfonyl)-phenyl]-pyrimidine-2,4-diamine]
STING ligand-induced IFNβ mRNA expression (IFNβ mRNA in iBMDMs): attenuation
CLP-induced lethality (animal death) ([1]; B6 mice, CLP 22-gauge needle, LDK378 20 mg/kg, intraperitoneally (i.p.), 2, 24, 48, and 72 hours after CLP, 20 mg/kg): conferred protection against lethality; also recorded: conferred significant protection; also recorded: prevented
protection of STING-deficient mice in high-grade sepsis ([1]; CLP 17 G needle, STING-deficient mice): conferred further protection
organ dysfunction by serum tissue enzymes (CK, AMYL, BUN, ALT) ([1]; CLP 22-gauge needle, LDK378 20 mg/kg, day 2-7): protective effects
CLP-induced TNFα, IFNβ, MCP1, and IL-7 mRNA expression ([1]; CLP 22-gauge needle, LDK378 20 mg/kg, day 3): reduced
CLP-induced tissue injury (H&E; lung, small intestine, other tissues) ([1]; CLP 22-gauge needle, LDK378 20 mg/kg, day 3, 20 mg/kg): reduced injury; also recorded: prevented
top five downregulated circulating immune chemical mediators compared with control group ([1]; CLP 22-gauge needle, serum, day 3): IL-10, serpin E1, serpin F1, TIM-1, and CXCL2
animal survival in low-, middle-, and high-grade sepsis models ([1]; CLP with 27 G, 22 G, 17 G needles, B6 mice): prolonged animal survival
CLP-induced cytokine systemic release and accumulation in the serum ([1]; serum antibody array, CLP 22-gauge needle, LDK378 20 mg/kg, day 3): reduced
cell viability (iBMDMs): did not affect cell viability
3′3′-cGAMP-induced p-TBK1 [2, 8]: time-dependently reduced
STING ligand-induced phosphorylation of TBK1, IRF3, and p65 [2, 9]: diminished
3′3′-cGAMP-, c-di-AMP-, and DMXAA-induced p-IRF3 and p-p65 ([2]; ligand 10 μg/ml): inhibited
c-di-AMP- or DMXAA-induced p-TBK1 ([2]; ligand 10 μg/ml, 16 hours): inhibited
3′3′-cGAMP- or c-di-AMP-induced phosphorylation of ALK, EGFR, and AKT ([2]; ligand 10 μg/ml, 16 hours): attenuated
3′3′-cGAMP-induced IFNβ release ([3]; mouse pPMs, 3′3′-cGAMP 10 μg/ml, compound 10 μM): confirmed their inhibitory properties
IFNβ release induced by STING ligands ([3]; pPMs, STING ligands 10 μg/ml, inhibitor 10 μM): inhibited
cell viability (RAW264.7 cells): did not affect cell viability
cell viability (pPMs): did not affect cell viability
3′3′-cGAMP-induced IFNβ release [4]: confirmed their inhibitory properties
STING ligand-induced IFNβ mRNA expression [5]: attenuation
3′3′-cGAMP-induced p-TBK1 [6, 8]: time-dependently reduced
STING ligand-induced phosphorylation of TBK1, IRF3, and p65 [6, 9]: diminished
3′3′-cGAMP-, c-di-AMP-, and DMXAA-induced p-IRF3 and p-p65 ([6]; ligand 10 μg/ml): inhibited
c-di-AMP- or DMXAA-induced p-TBK1 ([6]; ligand 10 μg/ml, 16 hours): inhibited
3′3′-cGAMP- or c-di-AMP-induced phosphorylation of ALK, EGFR, and AKT ([6]; ligand 10 μg/ml, 16 hours): attenuated
IFNβ release induced by STING ligands [7]: inhibited
